Tests used:
[1] = system: human prostate cancer (PC3); experiment: Antitumor screening using MTT assay; conditions: Homo sapiens
[2] = system: epithelioid carcinoma cervix cancer (Hela); experiment: Antitumor screening using MTT assay; conditions: Homo sapiens, HeLa
[3] = system: mammary gland breast cancer (MCF-7); experiment: Antitumor screening using MTT assay; conditions: Homo sapiens
[4] = system: human lung fibroblast (WI38); experiment: In vitro cytotoxicity against human normal cell line (MTT); type: cell-based; conditions: Homo sapiens, WI-38, human normal cell line WI38; mean ± SD, n = 3
Description: (§1) The anticancer agent's selectivity for cancer cells is a critical consideration for any researcher, as it can decrease the molecule's adverse effects on normal human cells.

[5] = as above; type: cell-based; conditions: human, WI38 human lung fibroblast cells (normal cell line), WI38, read-out: Average of Relative viability of cells (%)
Description: as §1

[6] = system: HePG2, MCF-7, Hela, PC3 cell lines; experiment: Antitumor screening using MTT assay, statements across several cell lines; type: cell-based, human; conditions: HePG2, MCF-7, Hela, PC3
Description: (§2) Hepatocellular carcinoma (HePG2), mammary gland breast cancer (MCF-7), epithelioid carcinoma cervix cancer (Hela), and human prostate cancer were included on the panel (PC3). […] The cell lines were obtained from the American Type Culture Collection (ATCC) through VACSERA, a Cairo-based holding firm for biological goods and vaccines.
(§3) The panel consisted of hepatocellular carcinoma (HePG2), mammary gland breast cancer (MCF-7), epithelioid carcinoma cervix cancer (Hela) and human prostate cancer (PC3). Human lung fibroblast (WI38) was used to assay the cytotoxicity effect on normal cell. The cell lines were obtained from ATCC via Holding company for biological products and vaccines (VACSERA), Cairo, Egypt. The cytotoxic activity was defined as the concentration of the compound that causes 50% growth inhibition compared with the growth of untreated cells.

[7] = system: Hepatocellular carcinoma (HePG2); experiment: Antitumor screening using MTT assay; type: cell-based, human; conditions: Homo sapiens
Description: as §2, §3

[8] = read-out: Average of Relative viability of cells (%)
[9] = MCF7, read-out: Average of Relative viability of cells (%)

C/C(=N\NC(=O)Nc1ccc(Cl)cc1)c1cc2ccccc2o1 [Compound 7, (E)-2-[1-(benzofuran-2-yl)ethylidene]-N-(4-chlorophenyl)hydrazine-1-carboxamide]
viability at 1.56 µM [1, 8]: 100% | viability at 3.125 µM [1, 8]: 100% | viability at 6.25 µM [1, 8]: 100% | viability at 12.5 µM [1, 8]: 93.6% | viability at 25 µM [1, 8]: 76.5% | viability at 50 µM [1, 8]: 64.8% | viability at 100 µM [1, 8]: 50.9% | IC50 ([1]; read-out: In-vitro cytotoxicity IC50 (µM) PC3): 93.9 ± 4.7 µM | viability at 1.56 µM [2, 8]: 100% | viability at 3.125 µM [2, 8]: 100% | viability at 6.25 µM [2, 8]: 93.8% | viability at 12.5 µM [2, 8]: 80.7% | viability at 25 µM [2, 8]: 68.4% | viability at 50 µM [2, 8]: 56.3% | viability at 100 µM [2, 8]: 42.9% | IC50 ([2]; read-out: In-vitro cytotoxicity IC50 (µM) Hela): 66 ± 3.2 µM | viability at 1.56 µM [3, 9]: 100% | viability at 3.125 µM [3, 9]: 100% | viability at 6.25 µM [3, 9]: 97.6% | viability at 12.5 µM [3, 9]: 88.9% | viability at 25 µM [3, 9]: 70.2% | viability at 50 µM [3, 9]: 58% | viability at 100 µM [3, 9]: 47.8% | IC50 ([3]; MCF7, read-out: In-vitro cytotoxicity IC50 (µM) MCF-7): 76.9 ± 3.8 µM | melting point: 235 to 237 °C | IC50 [4]: > 100 µM | viability at 1.56 µM ([5]; Conc. 1.56 µM): 100% | viability at 3.125 µM ([5]; Conc. 3.125 µM): 100% | viability at 6.25 µM ([5]; Conc. 6.25 µM): 100% | viability at 12.5 µM ([5]; Conc. 12.5 µM): 100% | viability at 25 µM ([5]; Conc. 25 µM): 89.3% | viability at 50 µM ([5]; Conc. 50 µM): 76.2% | viability at 100 µM ([5]; Conc. 100 µM): 55.5% | anticancer activity towards the four / all assessed cell lines (grade) [6]: weak (51–100 (weak)) | viability at 1.56 µM ([7]; Conc. 1.56 µM, read-out: Average of Relative viability of cells (%)): 100% | viability at 3.125 µM ([7]; Conc. 3.125 µM, read-out: Average of Relative viability of cells (%)): 100% | viability at 6.25 µM ([7]; Conc. 6.25 µM, read-out: Average of Relative viability of cells (%)): 99.7% | viability at 12.5 µM ([7]; Conc. 12.5 µM, read-out: Average of Relative viability of cells (%)): 87.4% | viability at 25 µM ([7]; Conc. 25 µM, read-out: Average of Relative viability of cells (%)): 72.5% | viability at 50 µM ([7]; Conc. 50 µM, read-out: Average of Relative viability of cells (%)): 60.2% | viability at 100 µM ([7]; Conc. 100 µM, read-out: Average of Relative viability of cells (%)): 48.1% | IC50 ([7]; mean ± SD, n = 3, read-out: In-vitro cytotoxicity IC50 (µM) HePG2): 81.6 ± 3.9 µM

Reference: paper PMC9556824, “Design, synthesis and computational study of new benzofuran hybrids as dual PI3K/VEGFR2 inhibitors targeting cancer” (Scientific Reports, 2022)
